Each structure is given as a SMILES string.

The test addresses T1, MGFR portion of the MUC1 receptor (His-PSMGFR) and ligand(s) in T47D lysate (Homo sapiens, UniProt P15941, R1131P).
T1 construct: made in house; host or cells: chemical synthesis (synthetic peptide)
T1 sequence (P15941 with tags, fused parts or gaps R1131P): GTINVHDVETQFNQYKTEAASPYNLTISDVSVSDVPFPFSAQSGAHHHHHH
The test can be described thus: Colloid color-change ligand binding assay with or without enzyme inhibitor. The settings on record: T47D lysate treated with inhibitor, final concentration 3 mM. The format is biochemical. As for the experimental part:
To test the hypothesis that the MGFR portion of the MUC1 receptor is enzymatically modified prior to binding to its ligand(s), the drug screening assay described in Example 5a was performed in the presence or absence of an enzyme inhibitor, PMSF (phenylmethylsulfonyl fluoride; Sigma chemical Co. St. Louis Mo., USA). T47D cells, which are breast tumor cells that aberrantly express MUC1, were grown to 70% confluency, treated with trypsin to detach from the flask, and pelleted by centrifugation. A lysate was prepared as follows from the pellets of two T75 flasks. Cell pellets were resuspended in 300 μL phosphate buffer (10 mM sodium phosphate, 100 mM NaCl, pH 7.4). The lysate was divided into two parts. One aliquot of lysate was used as is. To the second aliquot was added 9 μL of a 100 mM stock solution to achieve a final concentration 3 mM. The lysates were frozen and thawed four times with 15 seconds of vigorous mixing after each thawing. Lysates were then pelleted by centrifugation and the supernatant collected. Lysates were diluted by adding 6.2 ml of phosphate buffer. The drug screening assay was then performed as described in Example 5a, with the exception that no drugs were added. Rather the ability of the ligand(s) in the lysate to bind to the MGFR in a multimeric way, which would result in the solution color to change to blue, was tested. […]

As for `O=S(=O)(F)Cc1ccccc1` [PMSF, phenylmethylsulfonyl fluoride], the “Solution color change (ligand binding to His-PSMGFR colloids)” value was “did not change color and remained pink”.

(Values after patent US8344113B2, “Diagnostic tumor markers, drug screening for tumorigenesis inhibition, and compositions and methods for treatment of cancer” (Minerva Biotechnologies Corporation, priority 2000, dated 2013).)
